Activity calls are given as the source filed them.
Key:
[1] = luciferase reporter signal suppression in cells – H4 neuroglioma cells, luminescence, dose response (AID 1990); assay type: functional, cell-based
[2] = Luminescence Cell-Based Dose Response HTS to Identify Inhibitors of 5'UTR Stem-Loop Driven Prion Protein mRNA Translation in H4 Neuroglioblastoma Cells. [Related pubchem assays: 1827 (Project Summary), 1813 (Primary HTS)]; assay type: functional
[3] = alpha-synuclein stem-loop luciferase translation blockers – H4 neuroglioma cells, luminescence, confirmation (AID 1988); assay type: functional, cell-based
[4] = non-specific 3'UTR reporter inhibition in Clone20-Shn3RL – cell-based, Renilla luciferase, cherry-picked, counter-screen for Shn3 inhibitor project, dose response (AID 624133); assay type: functional
[5] = loss of viability in HepG2 cells – cell-based, CellTiter-Glo, cherry-picked, cytotoxicity control for Shn3 inhibitor project, dose response (AID 624134); assay type: functional
[6] = reduction of Shn3 3'UTR-driven luciferase in osteoblasts – cell-based, Clone20 osteoblasts, firefly luciferase, cherry-picked, dose response (AID 624132); assay type: functional;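 further: firefly luciferase luminescence from reporter carrying the Shn3 3'UTR in osteoblasts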
[7] = fluconazole-exposed Candida albicans growth modulators – fluorescence, retest, confirmation (AID 2467); assay type: functional, cell-based
[8] = NIH-3T3 fibroblast cytotoxicity, dose response, cytotoxicity control, cell-based, fluorescence, Alamar Blue, secondary assay (AID 2327); assay type: functional;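 further: NIH-3T3 mouse fibroblasts cultured with fluconazole at 8 µg/mL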
[9] = target: T1, Zinc finger protein mex-5 (Caenorhabditis elegans, UniProt Q9XUB2); test: potency of MEX-5 RNA-binding blockers – biochemical, C. elegans, fluorescence polarization, dose response (AID 1960)
T1 sequence (Q9XUB2 whole entry): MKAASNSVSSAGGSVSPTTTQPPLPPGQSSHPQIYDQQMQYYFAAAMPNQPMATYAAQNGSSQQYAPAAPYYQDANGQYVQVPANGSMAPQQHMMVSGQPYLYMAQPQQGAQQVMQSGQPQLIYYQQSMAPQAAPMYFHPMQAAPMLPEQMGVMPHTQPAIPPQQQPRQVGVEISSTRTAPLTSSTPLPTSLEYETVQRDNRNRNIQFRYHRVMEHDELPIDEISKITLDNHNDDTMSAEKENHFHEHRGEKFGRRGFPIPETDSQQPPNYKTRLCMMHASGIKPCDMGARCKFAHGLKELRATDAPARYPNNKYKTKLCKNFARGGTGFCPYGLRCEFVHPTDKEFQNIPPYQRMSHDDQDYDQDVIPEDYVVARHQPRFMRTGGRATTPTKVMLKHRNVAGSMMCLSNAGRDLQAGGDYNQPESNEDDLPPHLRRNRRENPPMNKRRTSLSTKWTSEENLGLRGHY

[10] = target: T2, RNA-binding protein pos-1 (Caenorhabditis elegans, UniProt G5EF15); test: disruptors of C. elegans POS-1 RNA interaction – biochemical, fluorescence polarization, dose response (AID 1964);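 further: purified POS-1 fused to maltose binding protein made in E. coli; potency of compounds blocking POS-1 binding to fluorescent RNA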
T2 sequence (G5EF15 whole entry): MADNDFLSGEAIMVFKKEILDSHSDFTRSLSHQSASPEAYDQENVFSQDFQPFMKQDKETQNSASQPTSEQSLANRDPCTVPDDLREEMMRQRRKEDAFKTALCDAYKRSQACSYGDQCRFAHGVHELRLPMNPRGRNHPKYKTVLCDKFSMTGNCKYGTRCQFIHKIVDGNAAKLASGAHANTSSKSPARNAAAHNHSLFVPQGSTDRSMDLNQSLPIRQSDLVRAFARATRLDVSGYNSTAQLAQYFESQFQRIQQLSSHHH

Large T antigen = Large T antigen (Simian virus 40, UniProt P03070); assay type: functional, Betapolyomavirus macacae;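 further: Confirmatory-stage PubChem screen for compounds that inhibit SV40 T antigen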
Large T antigen, sequence (P03070 whole entry): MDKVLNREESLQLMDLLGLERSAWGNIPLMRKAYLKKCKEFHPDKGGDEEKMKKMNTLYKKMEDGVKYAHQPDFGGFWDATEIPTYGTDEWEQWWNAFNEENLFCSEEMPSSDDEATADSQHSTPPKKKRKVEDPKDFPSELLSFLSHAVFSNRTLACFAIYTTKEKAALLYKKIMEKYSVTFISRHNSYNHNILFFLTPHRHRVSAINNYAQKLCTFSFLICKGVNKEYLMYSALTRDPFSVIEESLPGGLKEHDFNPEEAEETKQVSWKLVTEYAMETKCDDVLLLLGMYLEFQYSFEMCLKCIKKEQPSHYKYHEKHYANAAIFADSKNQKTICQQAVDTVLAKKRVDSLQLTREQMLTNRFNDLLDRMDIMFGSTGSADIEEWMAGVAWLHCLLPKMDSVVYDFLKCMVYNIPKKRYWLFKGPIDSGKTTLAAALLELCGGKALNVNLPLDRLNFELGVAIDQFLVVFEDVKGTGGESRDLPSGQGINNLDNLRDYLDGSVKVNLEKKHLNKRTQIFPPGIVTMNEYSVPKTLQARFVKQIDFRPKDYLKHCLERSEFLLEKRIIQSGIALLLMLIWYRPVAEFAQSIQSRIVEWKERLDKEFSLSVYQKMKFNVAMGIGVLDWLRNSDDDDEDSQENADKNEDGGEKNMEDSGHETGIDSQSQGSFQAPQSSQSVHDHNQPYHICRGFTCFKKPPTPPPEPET

INS1 = test: INS-1E survival protection against cytokine death – cell-based, luminescence, retest, dose response (AID 449756); assay type: functional; details: Rattus norvegicus;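 further: cell death triggered by IL-1 beta plus TNF-alpha plus IFN-gamma mixture; protective hits raise ATP signal compared with cytokine alone wells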
[11] = microbe, parasite or virus in culture; assay type: functional; details: Mycobacterium tuberculosis
H9c2 = test: cells; assay type: functional, cell-based; details: Rattus norvegicus, H9c2, Myocardium;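 further: confirmatory concentration-response retest of ultra-high-throughput screening hits for modulation of myocardial damage; cell death induced by hydrogen peroxide oxidative stress; compound pretreatment for 60 min then peroxide exposure for 2 h; potency is for protecting the cells against peroxide damage rather than for killing them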
Vero = test: cells; assay type: functional; details: Chlorocebus sabaeus
Streptococcus = test: GAS UMAA2166 growth inhibition – luminescence, BacTiterGlo, counter-screen for streptokinase expression inhibitor project, dose response (AID 1915); assay type: functional, organism-based;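 further: potency for reduction of bacterial viability or growth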
[12] = tested on: Streptococcus sp. 'group A'; test: Streptococcus pyogenes SK(-)GAS viability under kanamycin – luminescence, BacTiterGlo, confirmation, counter-screen for streptokinase expression inhibitor project, dose response (AID 1900); assay type: functional, organism-based
Streptokinase A = target: T3, Streptokinase A (Streptococcus pyogenes serotype M1, UniProt P10520); test: viability-normalized secreted streptokinase activity reduction – plasminogen activation absorbance, OD405, dose response (AID 1914); assay type: functional, Streptococcus pyogenes M1 GAS;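 further: secreted streptokinase activity via plasminogen activation per viability signal from cell pellet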
T3 sequence (P10520 whole entry): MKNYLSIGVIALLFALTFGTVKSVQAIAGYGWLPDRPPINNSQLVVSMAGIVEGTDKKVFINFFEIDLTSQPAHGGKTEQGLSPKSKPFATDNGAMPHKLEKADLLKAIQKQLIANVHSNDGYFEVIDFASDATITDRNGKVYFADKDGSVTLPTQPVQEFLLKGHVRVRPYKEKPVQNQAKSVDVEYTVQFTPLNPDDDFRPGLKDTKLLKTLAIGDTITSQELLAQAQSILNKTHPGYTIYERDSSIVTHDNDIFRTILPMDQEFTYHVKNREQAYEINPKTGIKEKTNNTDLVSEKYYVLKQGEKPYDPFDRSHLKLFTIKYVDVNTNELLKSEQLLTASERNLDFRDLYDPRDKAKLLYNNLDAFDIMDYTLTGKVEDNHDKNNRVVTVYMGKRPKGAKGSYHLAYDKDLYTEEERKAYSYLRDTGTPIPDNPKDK

[13] = target: T4, Rac GTPase-activating protein 1 (Homo sapiens, UniProt Q9H0H5); test: blockers of MgcRacGAP-driven Rac1 GTP hydrolysis – biochemical, ADP Hunter fluorescence, primary and confirmatory, confirmation (AID 624330); assay type: functional
T4 sequence (Q9H0H5 whole entry): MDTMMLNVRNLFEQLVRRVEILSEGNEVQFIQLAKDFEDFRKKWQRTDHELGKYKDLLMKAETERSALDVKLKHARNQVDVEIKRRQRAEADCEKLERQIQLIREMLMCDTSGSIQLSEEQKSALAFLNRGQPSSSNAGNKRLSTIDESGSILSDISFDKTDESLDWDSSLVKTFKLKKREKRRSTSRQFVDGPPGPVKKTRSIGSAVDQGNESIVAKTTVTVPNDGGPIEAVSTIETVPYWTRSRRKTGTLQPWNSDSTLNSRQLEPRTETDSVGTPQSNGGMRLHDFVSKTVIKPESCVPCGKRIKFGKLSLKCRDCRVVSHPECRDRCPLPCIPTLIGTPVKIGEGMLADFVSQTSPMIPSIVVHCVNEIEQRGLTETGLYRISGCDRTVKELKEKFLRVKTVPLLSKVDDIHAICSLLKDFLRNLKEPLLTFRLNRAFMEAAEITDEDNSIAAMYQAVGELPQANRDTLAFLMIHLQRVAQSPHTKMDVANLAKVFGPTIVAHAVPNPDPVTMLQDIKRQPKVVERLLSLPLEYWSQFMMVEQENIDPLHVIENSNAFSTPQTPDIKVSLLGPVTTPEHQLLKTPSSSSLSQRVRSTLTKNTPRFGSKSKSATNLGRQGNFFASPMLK

[14] = target: T5, Microphthalmia-associated transcription factor (Homo sapiens, UniProt O75030); test: reducers of TRPM1 reporter luminescence, concentration series – cell-based, SK-MEL-5, cherry-picked, set 3, MITF inhibitor project, dose response (AID 493073); assay type: functional;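 further: SK-MEL-5 melanoma cells with luciferase driven by the MITF target TRPM1 promoter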
T5 sequence (O75030 whole entry): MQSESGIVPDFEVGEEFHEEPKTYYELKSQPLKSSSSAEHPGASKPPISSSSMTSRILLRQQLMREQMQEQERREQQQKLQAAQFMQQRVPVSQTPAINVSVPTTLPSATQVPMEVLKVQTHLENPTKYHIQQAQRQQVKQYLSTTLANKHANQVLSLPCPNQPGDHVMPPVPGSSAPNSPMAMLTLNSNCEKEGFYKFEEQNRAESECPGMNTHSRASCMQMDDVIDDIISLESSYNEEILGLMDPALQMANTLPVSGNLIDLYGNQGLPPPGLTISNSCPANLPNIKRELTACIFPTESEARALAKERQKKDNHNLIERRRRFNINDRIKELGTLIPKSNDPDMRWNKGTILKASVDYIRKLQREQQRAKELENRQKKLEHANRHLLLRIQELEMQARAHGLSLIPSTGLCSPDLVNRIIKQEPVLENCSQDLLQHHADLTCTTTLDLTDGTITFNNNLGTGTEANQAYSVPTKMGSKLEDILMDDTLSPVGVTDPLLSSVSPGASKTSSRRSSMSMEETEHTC

Cc1ccc(NC(CNS(=O)(=O)c2ccc(Cl)cc2)c2ccccc2)cc1 (stereo unspecified)
EC50 [1]: > 120 µM (not active)
EC50 [2]: 45.4 µM (active)
EC50 [3]: 10.3 µM (active)

Cc1c(C(=O)Nc2ccc(F)c(F)c2)oc2ccc(S(=O)(=O)N3CCCCC3)cc12
AC50 [4]: 28 µM (active)
AC50 [5]: > 70 µM (inactive)
AC50 [6]: 7.05 µM (active)

COc1cc(/C=C2\C(=O)NN(c3ccccc3)C2=O)cc([N+](=O)[O-])c1O
EC50 [7]: > 38 µM (not active)
EC50 [8]: 21.2 µM (inconclusive)
EC50 [9]: 37.5 µM (active)
EC50 [10]: > 300 µM (not active)
IC50 (Large T antigen): > 100 µM (active)

CCOc1ccc(NC(=S)N2CCC(NC(=O)c3ccccc3C)CC2)cc1
EC50 [1]: > 120 µM (not active)
EC50 [2]: > 120 µM (not active)
EC50 [3]: > 120 µM (not active)

COc1ccccc1-c1nnc(NC(=O)c2ccc(S(=O)(=O)N(C)C)cc2)o1
EC50 [1]: > 120 µM (not active)
EC50 [2]: > 120 µM (not active)
EC50 [3]: > 120 µM (not active)

CCOc1ccc(S(=O)(=O)N(C)c2ccc(OCC(=O)Nc3nc4ccccc4s3)cc2)cc1
AC50 [4]: 4.06 µM (active)
AC50 [5]: 34.6 µM (active)
AC50 [6]: 2.82 µM (active)
AC50 (INS1): 7.73 µM (active)

O=C(Nc1ccc(N2CCOCC2)c(Cl)c1)c1c(F)c(F)c(F)c(F)c1F
CC50 [11]: > 40 µM (active)

CC(C)(C)c1ccc(OCC(=O)Nc2ccc3c4c(cccc24)C(=O)NC3=O)cc1
EC50 [1]: > 120 µM (not active)
EC50 [2]: 10.8 µM (active)
EC50 [3]: > 120 µM (not active)
IC50 (H9c2): 20.9 µM (active)

C=CCn1c(SCc2ccc(C#N)cc2)nnc1-c1cccc(OC)c1
EC50 [1]: 18.6 µM (active)
EC50 [2]: 48.7 µM (active)
EC50 [3]: > 120 µM (not active)

CCN1C(=O)/C(=C/c2c[nH]nc2-c2ccccc2)SC1=S
EC50 [1]: > 120 µM (not active)
EC50 [2]: > 120 µM (not active)
EC50 [3]: > 120 µM (not active)

O=C1c2ccc3c4c(ccc(c24)C(=O)N1c1cccc(O)c1)C(=O)N(c1cccc(O)c1)C3=O
EC50 [1]: 17.1 µM (active)
CC50 (Vero): > 25 µM (active)
EC50 (Streptococcus): 1.29 µM (active)
EC50 [2]: 85.7 µM (active)
AC50 (INS1): 0.848 µM (active)
EC50 [12]: 1.22 µM (active)
EC50 [3]: 15.1 µM (active)
EC50 (Streptokinase A): > 150 µM (not active)

CC(C)N1CCc2c(sc(NC(=O)c3ccc4ccccc4c3)c2C(N)=O)C1
CC50 (Vero): > 25 µM (active)
EC50 [9]: > 300 µM (inconclusive)
EC50 [10]: > 300 µM (not active)

CCCSc1nn2c(=O)c3ccccc3nc2s1
CC50 [11]: > 40 µM (active)

CCCCN(CCCC)c1nc(-c2ccncc2)nc2ccccc12
EC50 (Streptococcus): 8.44 µM (active)
EC50 [12]: 5.38 µM (active)
CC50 [11]: 29.3 µM (active)

CCC(=O)N1c2ccc(S(=O)(=O)CCC(=O)N3CCn4c3nc3ccccc34)cc2CC1C (stereo unspecified)
EC50 [7]: 4.5 µM (active)
EC50 [8]: 42.9 µM (active)
CC50 [11]: > 40 µM (active)

CCc1ccc(NCc2ccc(OC)c(Cn3ccnc3)c2)cc1
CC50 [11]: 24.2 µM (active)

Cc1cccc(C(=O)Nc2cccc(S(=O)(=O)NCc3ccco3)c2)c1
CC50 (Vero): 23.6 µM (active)

c1ccc(CN2CCN(c3ncnc4c3[nH]c3ccccc34)CC2)cc1
AC50 [4]: 5.4 µM (active)
AC50 [5]: 31.4 µM (active)
AC50 [6]: 2.06 µM (active)

C=C1C(=O)OC2CC1C(OC(C)=O)CC(C)=CCCC(C)=CCCC2(C)O (stereo unspecified)
AC50 [4]: 4.19 µM (active)
AC50 [5]: 15.1 µM (active)
AC50 [6]: 0.91 µM (active)

O=C(COc1cccc2cccnc12)N/N=C/c1ccc(O)cc1
IC50 [13]: 77 µM (active)
IC50 (Large T antigen): 19.5 µM (active)

C=C1C(=O)O[C@@]23[C@H]1CC[C@@H](C)[C@@H]2CC[C@@]1(C)O[C@@H]31 [ARTEANNUIN B]
AC50 [14]: 5.22 µM (active)

Reference: ChEMBL document CHEMBL1201862, “PubChem BioAssay data set” (2004)
